From PMC3262391 (Clinical pharmacology : advances and applications, 2011)
Where two headings read alike, the source gives them in different places. One block for each compound: values may come before it.

Assays:
[1] = assay type: in vivo, healthy subjects; conditions: for t½: mean (SD)
[2] = Diltiazem extended-release study: adverse events; assay type: in vivo, healthy subjects; conditions: for first-degree atrioventricular block, subjects: by treatment: diltiazem extended-release 360 mg alone, saxagliptin 10 mg + diltiazem extended-release 360 mg, saxagliptin 10 mg alone
[3] = Ketoconazole study: two-way pharmacokinetic interaction, plasma pharmacokinetics; assay type: in vivo, healthy subjects; conditions: for t½: mean (SD)
[4] = Simvastatin study: adverse events; assay type: in vivo, healthy subjects
[5] = Ketoconazole study: adverse events; assay type: in vivo, healthy subjects
P-glycoprotein = conditions: in vitro data; no reference given; cited from earlier work
[6] = excreted in urine; cited from earlier work
CYP2C9 [7] = conditions: in vitro studies; cited from earlier work
CYP2C19 = conditions: in vitro studies; cited from earlier work
CYP2D6 = conditions: in vitro studies; cited from earlier work
CYP3A4 [8] = conditions: in vitro studies; cited from earlier work
CYP2C9 [9] = conditions: in vitro studies; cited from earlier work; remark: listed apart in the source
CYP3A4 [10] = conditions: in vitro studies; cited from earlier work; remark: listed apart in the source
[11] = Simvastatin study: two-way pharmacokinetic interaction, plasma pharmacokinetics; conditions: for decrease of Cmax by saxagliptin / increase of AUCτ by saxagliptin: saxagliptin 10 mg + simvastatin 40 mg relative to simvastatin alone
DPP-4 = conditions: cited from earlier work
CYP1A2 [12] = conditions: in vitro studies; cited from earlier work
CYP2A6 = conditions: in vitro studies; cited from earlier work
CYP2B6 [13] = conditions: in vitro studies; cited from earlier work
CYP2E1 = conditions: in vitro studies; cited from earlier work
CYP1A2 [14] = conditions: in vitro studies; cited from earlier work; remark: listed apart in the source
CYP2B6 [15] = conditions: in vitro studies; cited from earlier work; remark: listed apart in the source
[16] = compared with saxagliptin 10 mg alone
[17] = compared with saxagliptin alone
[18] = saxagliptin 10 mg + simvastatin 40 mg relative to saxagliptin alone
[19] = saxagliptin 100 mg + ketoconazole versus ketoconazole alone
[20] = saxagliptin 10 mg + diltiazem extended-release 360 mg (day 10), geometric mean (CV%), n = 12
[21] = saxagliptin 10 mg administered alone (day 1), geometric mean (CV%), n = 12
[22] = saxagliptin 100 mg + ketoconazole 200 mg every 12 hours (day 9), geometric mean (CV%), n = 15
[23] = saxagliptin 100 mg administered alone (day 1), geometric mean (CV%), n = 15

AUC ([1]; human, plasma, oral, 360 mg): 3870 ng·h/mL
Cmax ([1]; human, plasma, oral, 360 mg): 262 ng/mL
Tmax ([1]; human, plasma, oral, 360 mg): 13 h
SMILES: COc1ccc([C@@H]2Sc3ccccc3N(CCN(C)C)C(=O)[C@@H]2OC(C)=O)cc1 [Diltiazem, diltiazem, reference compound]
first-degree atrioventricular block, subjects [2]: 42.9%
subjects with first-degree atrioventricular block who discontinued the trial ([2]; diltiazem extended-release 360 mg alone, on day 5): two of these subjects
adverse events reported (of thirteen in the study) ([2]; diltiazem extended-release 360 mg monotherapy): 12

SMILES: N#C[C@@H]1C[C@@H]2C[C@@H]2N1C(=O)[C@@H](N)C12CC3CC(CC(O)(C3)C1)C2 [Saxagliptin, saxagliptin, reference compound]
increase of AUC0-t by diltiazem extended-release [1, 16]: 113%
increase of AUC∞ by diltiazem extended-release [1, 16]: 109%
increase of Cmax by diltiazem extended-release [1, 16]: 63%
AUC0-t ([1]; human, plasma, oral, 10 mg): 152 ng·h/mL
AUC(0-inf) ([1]; human, plasma, oral, 10 mg): 158 ng·h/mL
Cmax ([1]; human, plasma, oral, 10 mg): 53 ng/mL
Tmax ([1]; human, plasma, oral, 10 mg): 0.5 h
half-life ([1]; human, plasma, oral, 10 mg): 143 min
increase of mean t½ by diltiazem extended-release ([1]; versus saxagliptin alone): 55.2 min
increase of AUC0-t by ketoconazole [3, 17]: 148%
increase of AUC∞ by ketoconazole [3, 17]: 145%
increase of Cmax by ketoconazole [3, 17]: 62%
AUC0-t ([3]; human, plasma, 100 mg): 1920 ng·h/mL
AUC(0-inf) ([3]; human, plasma, 100 mg): 1970 ng·h/mL
Cmax ([3]; human, plasma, 100 mg): 546 ng/mL
Tmax ([3]; human, plasma, 100 mg): 1 h
half-life ([3]; human, plasma, 100 mg): 142 min
increase of mean t½ by ketoconazole ([3]; versus saxagliptin alone): 1.1 h
serious adverse events or deaths ([4]; after coadministration of saxagliptin and simvastatin): no serious adverse events or deaths
serious adverse events or deaths ([2]; after coadministration of saxagliptin and diltiazem extended-release): no serious adverse events or deaths
first-degree atrioventricular block, subjects [2]: in no subjects
serious adverse events or deaths ([5]; after coadministration of saxagliptin and ketoconazole): no serious adverse events or deaths
substrate for the efflux transporter P-glycoprotein (P-glycoprotein): weak substrate
renal clearance [6]: approximately 230 mL/min
inhibition of CYP2C9 (CYP2C9 [7]): neither saxagliptin nor 5-hydroxy saxagliptin inhibits
inhibition of CYP2C19 (CYP2C19): neither saxagliptin nor 5-hydroxy saxagliptin inhibits
inhibition of CYP2D6 (CYP2D6): neither saxagliptin nor 5-hydroxy saxagliptin inhibits
inhibition of CYP3A4 (CYP3A4 [8]): neither saxagliptin nor 5-hydroxy saxagliptin inhibits
induction of CYP2C9 (CYP2C9 [9]): do not induce
induction of CYP3A4 (CYP3A4 [10]): do not induce
AUC ([11]; human, in vivo, 10 mg): 153 ng·h/mL
Cmax ([11]; human, in vivo, 10 mg): 44 ng/mL
Tmax ([11]; human, in vivo, 10 mg): 1 h
increase of AUCτ by simvastatin [11, 18]: 12%

AUC ([3]; human, plasma, 200 mg): 42300 ng·h/mL
Cmax ([3]; human, plasma, 200 mg): 7040 ng/mL
Tmax ([3]; human, plasma, 200 mg): 2 h
decrease of AUCτ by saxagliptin [3, 19]: 13%
decrease of Cmax by saxagliptin [3, 19]: 16%
SMILES: CC(=O)N1CCN(c2ccc(OCC3COC(Cn4ccnc4)(c4ccc(Cl)cc4Cl)O3)cc2)CC1 (stereo not drawn) [Ketoconazole, ketoconazole]
headache, subjects ([5]; ketoconazole alone treatment group, 10/16): 62.5%
subjects discontinued due to adverse event of increased transaminases ([5]; mild, beginning on day 8, lasting 11 days, following ketoconazole alone): One subject

decrease of AUC0-t by diltiazem extended-release [1, 16]: 36%
decrease of AUC∞ by diltiazem extended-release [1, 16]: 34%
decrease of Cmax by diltiazem extended-release [1, 16]: 43%
Cmax ([1]; plasma, SAXA + DILT XR, saxagliptin 10 mg + diltiazem extended-release 360 mg (day 10), geometric mean (CV%), n = 12): 63 (26) ng/mL
Cmax ([1]; plasma, SAXA, saxagliptin 10 mg administered alone (day 1), geometric mean (CV%), n = 12): 111 (20) ng/mL
AUC0-t [1, 20]: 338 (24) ng · h/mL
AUC∞ [1, 20]: 353 (23) ng · h/mL
t½ ([1]; saxagliptin 10 mg + diltiazem extended-release 360 mg (day 10)): 3.30 (0.53) h
Tmax ([1]; saxagliptin 10 mg + diltiazem extended-release 360 mg (day 10), median (minimum, maximum)): 1.50 (1.00, 2.50) h
AUC0-t [1, 21]: 526 (25) ng · h/mL
AUC∞ [1, 21]: 538 (25) ng · h/mL
t½ ([1]; saxagliptin 10 mg administered alone (day 1)): 3.04 (0.38) h
Tmax ([1]; saxagliptin 10 mg administered alone (day 1), median (minimum, maximum)): 1.50 (1.00, 2.00) h
decrease of AUC0-t by ketoconazole [3, 17]: 91%
decrease of AUC∞ by ketoconazole [3, 17]: 88%
decrease of Cmax by ketoconazole [3, 17]: 95%
Cmax ([3]; plasma, SAXA + KETO, saxagliptin 100 mg + ketoconazole 200 mg every 12 hours (day 9), geometric mean (CV%), n = 15): 53 (49) ng/mL
Cmax ([3]; plasma, SAXA, saxagliptin 100 mg administered alone (day 1), geometric mean (CV%), n = 15): 999 (24) ng/mL
AUC0-t [3, 22]: 473 (59) ng · h/mL
AUC∞ [3, 22]: 627 (43) ng · h/mL
t½ ([3]; saxagliptin 100 mg + ketoconazole 200 mg every 12 hours (day 9)): 6.33 (2.49) h
Tmax ([3]; saxagliptin 100 mg + ketoconazole 200 mg every 12 hours (day 9), median (minimum, maximum)): 2.00 (0.75, 4.00) h
AUC0-t [3, 23]: 5294 (19) ng · h/mL
AUC∞ [3, 23]: 5381 (19) ng · h/mL
t½ ([3]; saxagliptin 100 mg administered alone (day 1)): 3.68 (0.53) h
Tmax ([3]; saxagliptin 100 mg administered alone (day 1), median (minimum, maximum)): 1.50 (1.00, 2.00) h
Cmax ([11]; plasma, SAXA + SIMVA, saxagliptin 10 mg + simvastatin 40 mg (day 12), geometric mean (CV%), n = 23): 103 (29) ng/mL
Cmax ([11]; plasma, SAXA, saxagliptin 10 mg administered alone (day 4), geometric mean (CV%), n = 23): 96 (33) ng/mL
AUCτ ([11]; plasma, saxagliptin 10 mg + simvastatin 40 mg (day 12), geometric mean (CV%), n = 23): 538 (24) ng · h/mL
AUCτ ([11]; plasma, saxagliptin 10 mg administered alone (day 4), geometric mean (CV%), n = 23): 529 (26) ng · h/mL
Tmax ([11]; saxagliptin 10 mg + simvastatin 40 mg (day 12), median (minimum, maximum)): 1.50 (1.00, 2.00) h
increase of AUCτ by simvastatin [11, 18]: 2%
increase of Cmax by simvastatin [11, 18]: 8%
Tmax ([11]; saxagliptin 10 mg administered alone (day 4), median (minimum, maximum)): 1.50 (1.00, 3.00) h
SMILES: N#C[C@@H]1C[C@@H]2C[C@@H]2N1C(=O)[C@@H](N)C12CC3CC(O)(CC(O)(C3)C1)C2 [5-Hydroxy saxagliptin, 5-hydroxy saxagliptin]
DPP-4 inhibitive potency relative to the parent saxagliptin (DPP-4): one-half
renal clearance [6]: ~120 mL/min
inhibition of CYP1A2 (CYP1A2 [12]): neither saxagliptin nor 5-hydroxy saxagliptin inhibits
inhibition of CYP2A6 (CYP2A6): neither saxagliptin nor 5-hydroxy saxagliptin inhibits
inhibition of CYP2B6 (CYP2B6 [13]): neither saxagliptin nor 5-hydroxy saxagliptin inhibits
inhibition of CYP2C9 (CYP2C9 [7]): neither saxagliptin nor 5-hydroxy saxagliptin inhibits
inhibition of CYP2C19 (CYP2C19): neither saxagliptin nor 5-hydroxy saxagliptin inhibits
inhibition of CYP2D6 (CYP2D6): neither saxagliptin nor 5-hydroxy saxagliptin inhibits
inhibition of CYP2E1 (CYP2E1): neither saxagliptin nor 5-hydroxy saxagliptin inhibits
inhibition of CYP3A4 (CYP3A4 [8]): neither saxagliptin nor 5-hydroxy saxagliptin inhibits
induction of CYP1A2 (CYP1A2 [14]): do not induce
induction of CYP2B6 (CYP2B6 [15]): do not induce
induction of CYP2C9 (CYP2C9 [9]): do not induce
induction of CYP3A4 (CYP3A4 [10]): do not induce

AUC ([11]; human, in vivo, 40 mg): 17.9 ng·h/mL
decrease of Cmax by saxagliptin [11]: unchanged
increase of AUCτ by saxagliptin [11]: 16%
Tmax ([11]; simvastatin 40 mg administered alone (day 8), median (minimum, maximum)): 4.00 (2.00, 8.00) h
SMILES: CCC(C)(C)C(=O)O[C@H]1C[C@@H](C)C=C2C=C[C@H](C)[C@H](CC[C@@H](O)C[C@@H](O)CC(=O)O)[C@H]21 [Simvastatin acid, simvastatin acid]

SMILES: CCC(C)(C)C(=O)O[C@H]1C[C@@H](C)C=C2C=C[C@H](C)[C@H](CC[C@@H]3C[C@@H](O)CC(=O)O3)[C@H]21 [Simvastatin, simvastatin, reference compound]
subjects discontinued due to mild upper respiratory tract infection ([4]; simvastatin 40-mg group, diagnosed on day 5, deemed possibly related to study drug): One subject
decrease of Cmax by saxagliptin [11]: 12%
increase of AUCτ by saxagliptin [11]: 4%
